# Test results from article PMC10202811 (Nature Medicine, 2023).
# Where “and” joins values, the source holds several entries; their conditions need not be identical. Equal values may be shown once. Read-outs that look alike come from different tables or passages of the source.
# Experiment: Plasma pharmacokinetics of lorlatinib at steady state (LC-MS/MS, non-compartmental analysis)
# Assay type: in vivo, human
# Design: Vz_F / Cmax_D / AUMClast / AUMC_TAU: unit not given here
# Details: for Tlag: unit assumed
# Source text: Lorlatinib was isolated from human plasma by a liquid-iquid extraction procedure. […] A linear-log trapezoidal method was used [NT] A best-fit method was used to estimate terminal elimination and to extrapolate any plasma concentration versus time profiles to compute [NT].
# [1] = Cycle 1 Day 1, Cohort B2, 115 mg/m2 per dose
# [2] = Cycle 1 Day 1, Cohort A1, 45 mg/m2 per dose, individual patients
# [3] = Cycle 1 Day 1, Cohort A1, 60 mg/m2 per dose, individual patients
# [4] = Cycle 1 Day 1, Cohort A1, 75 mg/m2 per dose, individual patients
# [5] = Cycle 1 Day 1, Cohort A1, 95 mg/m2 per dose, individual patients
# [6] = Cycle 1 Day 1, Cohort A1, 115 mg/m2 per dose, individual patients
# [7] = Cycle 1 Day 1, Cohort A2, 100 mg per dose, individual patients
# [8] = Cycle 1 Day 1, Cohort A2, 150 mg per dose, individual patients
# [9] = Cycle 1 Day 1, Cohort A2, 150 mg per dose, individual patients, in ng/mL
# [10] = Cycle 1 Day 1, Cohort A2, 150 mg per dose, individual patients, in ng·h/mL (unit assumed)
# [11] = Cycle 1 Day 1, Cohort A2, 150 mg per dose, individual patients, listed as lorlatinib, in h (unit assumed)
# [12] = Cycle 1 Day 1, patient N0773, Cohort B2, 115 mg/m2 per dose, Dose 75
# [13] = Cycle 1 Day 15, Cohort A1, 95 mg/m2 per dose
# [14] = Cycle 1 Day 15, Cohort A1, 95 mg/m2 per dose, in h (unit assumed)
# [15] = Cycle 1 Day 15, Cohort A1, 115 mg/m2 per dose
# [16] = Cycle 1 Day 15, Cohort A2, 150 mg per dose
# [17] = Cycle 1 Day 15, Cohort A2, 150 mg per dose, in h (unit assumed)
# [18] = Cycle 1 Day 15, Cohort A2, 150 mg per dose, in ng·h/mL (unit assumed)
# [19] = Cycle 1 Day 15, Cohort B2, 95 mg/m2 per dose
# [20] = Cycle 1 Day 15, Cohort B2, 95 mg/m2 per dose, in h (unit assumed)
# [21] = Cycle 1 Day 15, Cohort B2, 95 mg/m2 per dose, in ng/mL
# [22] = Cycle 1 Day 15, Cohort B2, 95 mg/m2 per dose, in ng·h/mL (unit assumed)
# [23] = Cycle 1 Day 15, Cohort B2, 115 mg/m2 per dose
# [24] = Cycle 1 Day 15, Cohort A1, 45 mg/m2 per dose, individual patients
# [25] = Cycle 1 Day 15, Cohort A1, 45 mg/m2 per dose, individual patients, in h (unit assumed)
# [26] = Cycle 1 Day 15, Cohort A1, 60 mg/m2 per dose, individual patients
# [27] = Cycle 1 Day 15, Cohort A1, 60 mg/m2 per dose, individual patients, in h (unit assumed)
# [28] = Cycle 1 Day 15, Cohort A1, 75 mg/m2 per dose, individual patients
# [29] = Cycle 1 Day 15, Cohort A1, 75 mg/m2 per dose, individual patients, in h (unit assumed)
# [30] = Cycle 1 Day 15, Cohort A1, 75 mg/m2 per dose, individual patients, in ng·h/mL (unit assumed)
# [31] = Cycle 1 Day 15, Cohort A1, 95 mg/m2 per dose, individual patients
# [32] = Cycle 1 Day 15, Cohort A1, 95 mg/m2 per dose, individual patients, in h (unit assumed)
# [33] = Cycle 1 Day 15, Cohort A1, 115 mg/m2 per dose, individual patients
compound,measurement,setting,value
"C[C@H]1Oc2cc(cnc2N)-c2c(nn(C)c2C#N)CN(C)C(=O)c2ccc(F)cc21 [Lorlatinib, (10R)-7-amino-12-fluoro-2,10,16-trimethyl-15-oxo-10,15,16,17-tetrahydro-2H-8,4-(metheno)pyrazolo[4,3-h][2,5,11]-benzoxadiazacyclotetradecine-3-carbonitrile]",Tlag,"Cycle 1 Day 1, Cohort A2, 150 mg per dose",0 h
same,Tlag,"Cycle 1 Day 1, Cohort B2, 95 mg/m2 per dose",0 h
same,Tlast,[1],24 h
same,Tmax,"Cycle 1 Day 1, Cohort B2, 115 mg/m2 per dose, in h (unit assumed)",1
same,Tmax,"Cycle 1 Day 1, Cohort B2, 115 mg/m2 per dose, listed as lorlatinib, in h (unit assumed)",2
same,Tlag,[1],0 h
same,Tlast,[2],24 h
same,Tmax,"Cycle 1 Day 1, Cohort A1, 45 mg/m2 per dose, individual patients, in h (unit assumed)",2
same,Tlag,[2],0 h
same,Tlast,[3],24 h
same,Tlag,[3],0 h
same,Tlast,[4],24 h
same,Tmax,"Cycle 1 Day 1, Cohort A1, 75 mg/m2 per dose, individual patients, in h (unit assumed)",2
same,Cmax,"Cycle 1 Day 1, Cohort A1, 75 mg/m2 per dose, individual patients, in ng/mL",779
same,Tlag,[4],0 h
same,Tlast,[5],24 h
same,Tlag,[5],0 h
same,AUMClast,[6],125336.7763
same,Cmax_D,[6],11.08
same,Tlast,[6],24 h
same,Clast,"Cycle 1 Day 1, Cohort A1, 115 mg/m2 per dose, individual patients, in ng/mL",172
same,Tlag,[6],0 h
same,Tlast,[7],24 h
same,Tmax,"Cycle 1 Day 1, Cohort A2, 100 mg per dose, individual patients, in h (unit assumed)",2
same,Tlag,[7],0 h
same,AUMClast,[8],49463.3786 and 88733.21472 and 92632.60987
same,Cmax_D,[8],3.76 and 5.527 and 7.067
same,Tlast,[8],24 h
same,Tmax,"Cycle 1 Day 1, Cohort A2, 150 mg per dose, individual patients, in h (unit assumed)",2
same,Clast,[9],70.8 and 151 and 127
same,Cmax,[9],829 and 1060
same,AUCall,[10],9320 and 11097.69267
same,AUClast,[10],9320 and 11097.69267
same,MRTlast,[11],9.52 and 8.347
same,Tmax,[11],2
same,Tlag,[8],0 h
same,AUMClast,[12],89144.88493
same,Cmax_D,[12],22.13
same,Tlast,[12],24 h
same,Tlag,[12],0 h
same,AUC_TAU_%Extrap,[13],0%
same,Tlast,[13],24 h
same,Tmax,[14],1
same,Tmin,[14],0
same,Cavg,"Cycle 1 Day 15, Cohort A1, 95 mg/m2 per dose, in ng/mL",288.1
same,Tlag,[13],0 h
same,AUC_TAU_%Extrap,[15],0%
same,Tlast,[15],24 h
same,Tmin,"Cycle 1 Day 15, Cohort A1, 115 mg/m2 per dose, in h (unit assumed)",0
same,Tlag,[15],0 h
same,AUC_TAU_%Extrap,[16],0%
same,AUMC_TAU,[16],48864.79941 and 48509.22474 and 72138.31531 and 51031.1075 and 68396.67554 and 68306.96584 and 82226.35285
same,Accumulation_Index,[16],1.404 and 1.221 and 1.584 and 1.215 and 1.756 and 1.451 and 1.861
same,CLss_F,[16],30.01 and 26.36 and 19.5 and 22.81 and 21.08 and 21.41 and 18.08
same,Tlast,[16],24 h
same,Vz_F,[16],578.5 and 370.3 and 469.1 and 316.3 and 600.6 and 439.8 and 562.8
same,Tmax,[17],1
same,Tmin,[17],0
same,Cavg,"Cycle 1 Day 15, Cohort A2, 150 mg per dose, in ng/mL",208.3 and 237.1 and 320.6 and 274 and 296.5 and 291.9 and 345.7
same,AUC_TAU,[18],5690 and 7694 and 6577 and 7116 and 7005
same,AUCall,[18],5690 and 7694 and 6577 and 7116 and 7005
same,AUClast,[18],5690 and 7694 and 6577 and 7116 and 7005 and 8297
same,Tmax,"Cycle 1 Day 15, Cohort A2, 150 mg per dose, read-out: Tmax",1 h (4×) and 2 h
same,Tlag,[16],0 h
same,AUC_%Extrap_obs,[19],3.629%
same,AUC_%Extrap_pred,[19],3.558%
same,AUC_TAU_%Extrap,[19],0%
same,Accumulation_Index,[19],1.029
same,Tlast,[19],24 h
same,Vz_F,[19],73.35
same,HL_Lambda_z,[20],4.68
same,Tmax,[20],2
same,Tmin,[20],0
same,Lambda_z,"Cycle 1 Day 15, Cohort B2, 95 mg/m2 per dose, in h-1 (unit assumed)",0.1481
same,Clast_pred,[21],30.18
same,Cmax,[21],721
same,AUC_TAU,[22],5523
same,AUCall,[22],5523
same,AUClast,[22],5523
same,Tlag,[19],0 h
same,AUC_TAU_%Extrap,[23],0%
same,Tlast,[23],24 h
same,Tmax,"Cycle 1 Day 15, Cohort B2, 115 mg/m2 per dose, in h (unit assumed)",1
same,Tmax,"Cycle 1 Day 15, Cohort B2, 115 mg/m2 per dose, listed as lorlatinib, in h (unit assumed)",2
same,Tlag,[23],0 h
same,AUC_TAU_%Extrap,[24],0%
same,Tlast,[24],24 h
same,Vz_F,[24],335.3
same,Tmax,[25],2
same,Tmin,[25],0
same,Tlag,[24],0 h
same,AUC_TAU_%Extrap,[26],0%
same,Tlast,[26],24 h
same,Tmax,[27],2
same,Tmin,[27],0
same,Cmax,"Cycle 1 Day 15, Cohort A1, 60 mg/m2 per dose, individual patients, in ng/mL",343
same,Tlag,[26],0 h
same,AUC_TAU_%Extrap,[28],0%
same,Tlast,[28],24 h
same,MRTINF_obs,[29],9.338
same,MRTINF_pred,[29],9.311
same,Tmin,[29],0
same,AUCINF_obs,[30],3021
same,AUCINF_pred,[30],3018
same,Tlag,[28],0 h
same,AUC_TAU_%Extrap,[31],0%
same,Tlast,[31],24 h
same,MRTINF_obs,[32],11.95
same,MRTINF_pred,[32],11.86
same,Tmax,[32],2
same,Tmin,[32],0
same,Tlag,[31],0 h
same,AUC_%Extrap_obs,[33],23.66%
same,AUC_%Extrap_pred,[33],23.4%
same,AUC_TAU_%Extrap,[33],0%
same,AUMC_TAU,[33],68314.30452
same,Accumulation_Index,[33],1.333
same,CLss_F,[33],15.84
same,Cmax_D,[33],10.38
same,Fluctuation%,[33],351.8%
same,Fluctuation%_Tau,[33],351.8%
